Experimental data: patent publication US20110001042A1, “ASSESSING TREATMENT COMPLIANCE” (priority 2007, published 2011)
Several values for one entry are separate records, joined by “and”; a condition that tells them apart may be missing. Equal entries are not always repeated.

Key:
[1] = fluticasone-17β carboxylic acid in urine of patients before, during and after FP therapy by LC-MS/MS; format: in vivo, human
Description: Fluticasone-17β carboxylic acid was extracted from urine using an acetonitrile precipitation followed by methylene chloride liquid extraction of the supernatant. Sixty μL of the reconstituted sample extract was analyzed by LC-MS/MS (ABI 4000). The linearity, precision, recovery and limit of quantitation (LOQ) were determined. Measurement of fluticasone-17β carboxylic acid in urine collected daily from patients before (days 1-2), during (days 3-6; total dose Flovent 110 2 puffs daily), and following cessation of FP therapy (days 7-14) was conducted (n=4). The linear range of fluticasone-17β carboxylic acid measured by LC-MS/MS was 10-9510 pg/mL. The LOQ with a CV<20% was 10 pg/mL, and recovery ranged from 85.8-111.9% with a mean of 97.9%. Within-run precision testing indicated a maximum CV of 9.3% at 10.3 pg/mL. Between-run precision CVs for urine pools spiked with 3 concentrations of fluticasone-17 β carboxylic acid were 10.6% at 11.1 pg/mL, 11.2% at 500.9 pg/mL, and 8.7% at 5116 pg/mL. Detection of fluticasone-17β carboxylic acid in urine from patients prior to FP therapy was <10 pg/mL (days 1 & 2), ranged from 157-1830 pg/mL when receiving therapy (days 3-6) and was undetectable 5 days after stopping therapy (days 11-14). An eight-point calibration curve (0, 10, 25, 100, 200, 1000, 2000, and 10000 pg/mL) and three controls (10, 500 and 5000 pg/mL) were prepared in charcoal stripped-urine and included with each assay run. Aliquots of urine were centrifuged for 5 minutes at 1000g to remove particulate matter. A 1.0 mL fraction of each calibrator, control, and urine sample was transferred into an appropriately labeled 12×75 mm glass tube. Internal standard (100 μL of 40 ng/mL fluorometholone working solution per sample) was added to each calibrator, control, and urine sample followed by gentle vortexing and incubation for 5 minutes at ambient temperature. Acetonitrile with 0.1% HCl (1.5 mL/sample) was then added, and tubes were vortexed and centrifuged at 1500g for 10 minutes. […]

[2] = sensitivity and specificity of urine fluticasone 17β carboxylic acid after witnessed fluticasone propionate administration in asthma patients; format: in vivo, human; conditions: Fluticasone Administered Under Observation, 16-24 hours before sample
Description: In order to evaluate the sensitivity and specificity of fluticasone 17β carboxylic acid, nineteen patients with asthma were recruited. Nine of these subjects were on treatment with fluticasone propionate. As a gold standard of compliance, treatment was documented by an RN study nurse who witnessed the patients' administration of fluticasone propionate 16-24 hours prior to submission of a urine sample for the analysis of fluticasone 17 β carboxylic acid. Urine samples from ten subjects with asthma but not receiving fluticasone propionate were used as controls.

[3] = fluticasone 17β carboxylic acid measured in urine with and without preservatives; format: physicochemical; conditions: individual specimens, mean, bias
Description: Fluticasone 17β carboxylic acid was measured in urine samples lacking preservatives or urine samples containing one of the following preservatives: boric acid, glacial acetic acid, HCL, toluene, or sodium bicarbonate (Table 5).
In summary, non-preserved urine can be used effectively. Samples acquired with boric acid preservative indicated an individual bias of −0.6 to 5.0% and a mean bias of 1.4% from non-preserved urine specimen. Samples acquired in glacial acetic acid preservative indicated an individual bias of −18.9 to 17.1% and a mean bias of −1.2% from non-preserved urine specimen. Samples acquired in HCL preservative indicated an individual bias of −14.5 to 9.1% and a mean bias of −5.8% from non-preserved urine specimen. Samples acquired in sodium bicarbonate preservative indicated an individual bias of −94.7 to −92.5% and a mean bias of −93.8% from non-preserved urine specimen. Samples acquired in toluene preservative indicated an individual bias of −10.6 to 9.8% and a mean bias of 0.3% from non-preserved urine specimen. Thus, urine containing boric acid, glacial acetic acid, HCL, or toluene are acceptable. Urine containing sodium bicarbonate preservative is not as acceptable.

[4] = stability of fluticasone 17β carboxylic acid in pooled urine stored ambient, refrigerated or freeze/thaw; format: physicochemical; conditions: for % Diff. 3: Ambient, Day 3; for % Diff 7: Day 7
Description: Fluticasone 17β carboxylic acid was measured in pooled urine samples lacking preservatives that were stored at ambient temperature, were refrigerated, or were frozen and subjected to freeze/thaw cycles (Table 6).
Fluticasone 17β carboxylic acid was measured in pooled urine samples containing boric acid as a preservative that were stored at ambient temperature, were refrigerated, or were frozen and subjected to freeze/thaw cycles (Table 7).
Fluticasone 17β carboxylic acid was measured in pooled urine samples containing glacial acetic acid as a preservative that were stored at ambient temperature, were refrigerated, or were frozen and subjected to freeze/thaw cycles (Table 8).
Fluticasone 17β carboxylic acid was measured in pooled urine samples containing hydrochloric acid as a preservative that were stored at ambient temperature, were refrigerated, or were frozen and subjected to freeze/thaw cycles (Table 9).
Fluticasone 17β carboxylic acid was measured in pooled urine samples containing toluene as a preservative that were stored at ambient temperature, were refrigerated, or were frozen and subjected to freeze/thaw cycles (Table 10).

fluticasone-17β carboxylic acid in urine ([1]; 5 days after stopping therapy (days 11-14)): undetectable
fluticasone-17β carboxylic acid in urine ([1]; patients prior to FP therapy (days 1 & 2)): < 10 pg/mL
fluticasone-17β carboxylic acid in urine ([1]; patients receiving therapy (days 3-6; Flovent 110 2 puffs daily)): 157 to 1830 pg/mL
Negative Urine (number of subjects) [2]: 0
Positive Urine (number of subjects) [2]: 9
time stable ([4]; boric acid-preserved urine, ambient temperature): 7 days
freeze-thaw cycles stable ([4]; boric acid-preserved urine, frozen): up to 1 freeze-thaw cycle
time stable ([4]; boric acid-preserved urine, refrigerated): 3 days
time stable ([4]; glacial acetic acid-preserved urine, ambient temperature): 7 days
freeze-thaw cycles stable ([4]; glacial acetic acid-preserved urine, frozen): up to 2 freeze-thaw cycles
time stable ([4]; hydrochloric acid-preserved urine, ambient temperature): 7 days
freeze-thaw cycles stable ([4]; hydrochloric acid-preserved urine, frozen): up to 1 freeze-thaw cycle
time stable ([4]; hydrochloric acid-preserved urine, refrigerated): 3 days
time stable ([4]; non-preserved urine, ambient temperature): 3 days
freeze-thaw cycles stable ([4]; non-preserved urine, frozen): up to 3 freeze-thaw cycles
time stable ([4]; non-preserved urine, refrigerated): 7 days
freeze-thaw cycles stable ([4]; toluene-preserved urine, immediately frozen): up to 3 freeze-thaw cycles
% Diff. 3 ([4]; urine Boric Acid): 1.2% and −1.3% and −7.9%
% Diff. 3 ([4]; urine Boric Acid, mean): −2.7%
% Diff. 1 ([4]; urine Boric Acid, Freeze/Thaw, F/T 1): −9.3% and −5.4% and −10.1%
% Diff. 1 ([4]; urine Boric Acid, Freeze/Thaw, F/T 1, mean): −8.3%
% Diff 7 ([4]; urine Boric Acid, Refrigerated): −14.5% and −10.1% and −16.3%
% Diff 7 ([4]; urine Boric Acid, Refrigerated, mean): −13.7%
% Diff. 1 ([4]; urine HCL, Refrigerated, Day 1): −4.6% and −2.6% and −9.5%
% Diff. 1 ([4]; urine HCL, Refrigerated, Day 1, mean): −5.6%
% Diff 7 ([4]; urine HCL, Refrigerated): −17.1% and −8.5%
% Diff 7 ([4]; urine HCL, Refrigerated, mean): −11.4%
% Diff. 1 ([4]; urine Toluene, Refrigerated, Day 1): −19.5% and −12.4% and −11.4%
% Diff. 1 ([4]; urine Toluene, Refrigerated, Day 1, mean): −14.4%
% Diff. 1 ([4]; urine no pres, Freeze/Thaw, F/T 1): 0.0% and −6.6% and −6.1%
% Diff. 1 ([4]; urine no pres, Freeze/Thaw, F/T 1, mean): −4.2%
% Diff. 1 ([4]; urine no pres, Refrigerated, Day 1): −7.5% and −4.4% and −11.5%
% Diff. 1 ([4]; urine no pres, Refrigerated, Day 1, mean): −7.8%
SMILES: CCC(=O)O[C@]1(C(=O)O)[C@H](C)C[C@H]2[C@@H]3C[C@H](F)C4=CC(=O)C=C[C@]4(C)[C@@]3(F)[C@@H](O)C[C@@]21C [Fluticasone 17β carboxylic acid]
% Difference between No Pres & HCL ([3]; urine with HCL): −14.5 to 9.1% and −5.8% and 9.1% and −12.1% and −14.5%
% Difference between No Pres & BA ([3]; urine with boric acid): −0.6 to 5.0% and 1.4% and 5.0% and −0.6% and −0.3%
% Difference between No Pres & GAA ([3]; urine with glacial acetic acid): −18.9 to 17.1% and −1.2% and 17.1% and −1.7% and −18.9%
% Difference between No Pres & Na2CO3 ([3]; urine with sodium bicarbonate): −94.7 to −92.5% and −93.8% and −94.2% and −94.7% and −92.5%
% Difference between No Pres & Toluene ([3]; urine with toluene): 0.3% and −10.6 to 9.8% and −10.6% and 9.8% and 1.6%
